Experimental data as given in patent publication US20150259331A1, “PROTOZOAN PARASITE GROWTH INHIBITORS” (Northeastern University, priority 2014, published 2015).
Counter-ions that a name gives are not always drawn. Like-named read-outs stand apart in the source and are kept apart here. Marks after values point to notes of the source that are not given here.

Tests used:
P. falciparum D6 = P. falciparum D6 assay; format: cell-based; settings: strain D6
L. major promastigote = L. major promastigote assay; format: cell-based
P. falciparum W2 = P. falciparum W2 assay; format: cell-based
P. falciparum C235 = P. falciparum C235 assay; format: cell-based; settings: read-out: P. falciparum C235 (EC50)
L. major amastigote = L. major amastigote assay; format: cell-based
T. cruzi = T. cruzi growth inhibition; format: cell-based, Trypanosoma cruzi; settings: for inhibition at 10 µM / EC50: Trypanosoma cruzi; for inhibition at 10 µM: read-out: T. cruzi % inh at 10 μM
[1] = system: T. brucei brucei Lister 427; assay: Trypanosome replication assay; format: cell-based, Trypanosoma brucei brucei; settings: 48 h, 48 h, values ±7%
HepG2 cells = assay: HepG2 cell toxicity (MTT) assay; format: cell-based
Experimental: Then 2 μL of DMSO (control) or different concentrations of drugs prepared from 200× DMSO stocks were added to the cultures. […] All experiments were repeated thrice in independent studies where each dose was administered in duplicate (total n=6). HepG2 Cell Toxicity Assay. The 384 well MTT cytotoxicity assay is a modification of the MTT method described by Ferrari et al. optimized for 384-well throughput, with modifications described below.
HepG2 Cell Toxicity assay. The 384 well MTT cytotoxicity assay is a modification of the MTT method described by Ferrari et al.^1 ENREF—26_ENREF—26_ENREF—26 optimized for 384 well throughput. […] 4.25 μL of diluted test compound was then added to the 38.3 μL of media in each well providing a 10 fold final dilution of compound. […] After a 48 hour incubation period, 8 μL of a 1.5 mg/ml solution of MTT diluted in complete MEM media was added to each well. All plates were subsequently incubated in the dark for 1 hour at room temperature. After incubation, the media and drugs in each well was removed by shaking plate over sink, the plates are then left to dry in hood for 15 minutes. […] Plates are put on a 3-D rotator for 15-30 minutes. Absorbance was determined in all wells using a Tecan iControl 1.6 Infinite plate reader.

[2] = Plasmodium falciparum, strain W2, read-out: P. falciparum W2 (EC50)
[3] = Plasmodium falciparum, strain C235
[4] = Trypanosoma brucei, concentration giving 50% inhibition of growth of T brucei brucei Lister 427 cells, read-out: Tbb EC50
[5] = Homo sapiens, HepG2, 48 h, MTT, 48 hour incubation, read-out: HepG2 IC50
[6] = strain W2, read-out: P. falciparum W2 (EC50)
[7] = concentration giving 50% inhibition of growth of T brucei brucei Lister 427 cells, read-out: Tbb EC50
[8] = MTT, 48 hour incubation, read-out: HepG2 IC50
[9] = Trypanosoma brucei, read-out: Tbb EC50, concentration giving 50% inhibition of growth of T brucei brucei Lister 427 cells
[10] = Homo sapiens, HepG2, 48 h, read-out: HepG2 IC50, MTT, 48 hour incubation
[11] = read-out: HepG2 IC50, MTT, 48 hour incubation
[12] = Plasmodium falciparum, W2, read-out: P. falciparum W2 (EC50)

| EC50 (P. falciparum D6; Plasmodium falciparum) | EC50 (L. major promastigote; Leishmania major) | EC50 (P. falciparum W2; [2]) | EC50 (P. falciparum C235; [3]) | EC50 (L. major amastigote; Leishmania major) | EC50 [1, 4] | Compound | inhibition at 10 µM (T. cruzi) | IC50 (HepG2 cells; [5]) | also measured |
| --- | --- | --- | --- | --- | --- | --- | --- | --- | --- |
| 0.14 µM | 3 µM | 0.45 µM | 0.24 µM | 3 µM | 1.12 µM | O=S(=O)(c1ccc(-c2ccc3ncnc(Nc4ccc(OCc5cc(F)cc(F)c5F)c(Cl)c4)c3c2)cc1)N1CCOCC1 [Compound 20m, N-(3-Chloro-4-((2,3,5-trifluorobenzyl)oxy)phenyl)-6-(4-(morpholinosulfonyl)phenyl)quinazolin-4-amine Hydrochloride] | 14% | > 3 µM | EC50 ([1]; concentration giving 50% inhibition of growth of T brucei brucei Lister 427 cells, listed as NEU-569, Hydrochloride, read-out: Tbb EC50): 1.1 µM |
| 0.17 µM | 1.7 µM | 0.36 µM | 0.24 µM | > 15 µM | 1.34 µM | O=S(=O)(c1ccc(-c2ccc3ncnc(Nc4ccc(OCc5ccc(F)cc5)c(Cl)c4)c3c2)cc1)N1CCOCC1 [Compound 20j, N-(3-Chloro-4-((4-fluorobenzyl)oxy)phenyl)-6-(4-(morpholinosulfonyl)phenyl)quinazolin-4-amine Hydrochloride] | -1% | > 15 µM | EC50 ([1]; concentration giving 50% inhibition of growth of T brucei brucei Lister 427 cells, listed as NEU-566, Hydrochloride, read-out: Tbb EC50): 1.3 µM |
| 20 µM | 2.7 µM | 20 µM | 20 µM | > 15 µM | 0.18 µM | c1ccc(COc2ccc(Nc3ncnc4ccc(-c5cccc(N6CCOCC6)c5)cc34)cc2)cc1 [Compound 23n, N-(4-(Benzyloxy)phenyl)-6-(3-morpholinophenyl)-quinazolin-4-amine] | 37% | > 20 µM | – |
| 0.25 µM | 0.47 µM | 0.72 µM | 0.45 µM | > 15 µM | 1.35 µM | O=S(=O)(c1ccc(-c2ccc3ncnc(Nc4ccc(OCc5ccccc5)c(Cl)c4)c3c2)cc1)N1CCOCC1 [Compound 20e, N-(4-(Benzyloxy)-3-chlorophenyl)-6-(4-(morpholinosulfonyl)phenyl)quinazolin-4-amine Hydrochloride] | 9% | > 15 µM | EC50 ([1]; concentration giving 50% inhibition of growth of T brucei brucei Lister 427 cells, listed as NEU-551, Hydrochloride, read-out: Tbb EC50): 1.4 µM |
| – | – | – | – | – | – | O=S(=O)(c1cccc(-c2ccc3ncnc(Nc4ccc(OCc5cccc(F)c5)c(Cl)c4)c3c2)c1)N1CCCC1 [Compound 10o] | – | – | EC50 (P. falciparum D6): 0.19 µM; EC50 (L. major promastigote): > 15 µM; EC50 (P. falciparum W2; [6]): 0.48 µM; EC50 (P. falciparum C235; strain C235): 0.3 µM; EC50 (L. major amastigote): > 15 µM; T. cruzi % inh at 10 μM (T. cruzi): (32)* %; EC50 [1, 7]: 0.25 µM; IC50 (HepG2 cells; [8]): > 15 µM |
| – | – | – | – | – | – | O=S(=O)(c1ccc(-c2ccc3ncnc(Nc4ccc(OCc5cccc(F)c5)c(Cl)c4)c3c2)cc1)N1CCCC1 [Compound 10n] | – | – | EC50 (P. falciparum D6): 0.2 µM; EC50 (L. major promastigote): > 15 µM; EC50 (P. falciparum W2; [6]): 0.8 µM; EC50 (P. falciparum C235; strain C235): 0.42 µM; EC50 (L. major amastigote): > 15 µM; T. cruzi % inh at 10 μM (T. cruzi): (10)* %; EC50 [1, 7]: 0.35 µM; IC50 (HepG2 cells; [8]): > 15 µM |
| 1.7 µM | 0.45 µM | 6.2 µM | 2.8 µM | > 15 µM | 1.15 µM | Cc1ccc(Nc2ncnc3ccc(-c4ccc(S(=O)(=O)N5CCOCC5)cc4)cc23)cc1 [Compound 20b, 6-(4-(Morpholinosulfonyl)phenyl)-N-(p-tolyl)quinazolin-4-amine Hydrochloride] | 59% | > 15 µM | EC50 ([1]; concentration giving 50% inhibition of growth of T brucei brucei Lister 427 cells, listed as NEU-549, Hydrochloride, read-out: Tbb EC50): 1.2 µM |
| 0.44 µM | 0.48 µM | 2 µM | 0.85 µM | 0.47 µM | 0.65 µM | O=S(=O)(c1ccc(-c2ccc3ncnc(Nc4ccc(OCc5cccc(F)c5)cc4)c3c2)cc1)N1CCOCC1 [Compound 20n, N-(4-((3-Fluorobenzyl)oxy)phenyl)-6-(4-(morpholinosulfonyl)phenyl)quinazolin-4-amine] | 10% | > 15 µM | – |
| 0.027 µM | 2.8 µM | 0.044 µM | 0.039 µM | 1.6 µM | 0.53 µM | CN1CCN(S(=O)(=O)c2ccc(-c3ccc4ncnc(Nc5ccc(OCc6cccc(F)c6)c(Cl)c5)c4c3)cc2)CC1 [Compound 10p, N-(3-Chloro-4-((3-fluorobenzyl)oxy)phenyl)-6-(4-((4-methylpiperazin-1-yl)sulfonyl)phenyl)quinazolin-4-amine] | 60% | > 15 µM | – |
| 0.23 µM | 15 µM | 0.69 µM | 0.35 µM | 15 µM | 1.43 µM | COc1cccc(COc2ccc(Nc3ncnc4ccc(-c5ccc(S(=O)(=O)N6CCOCC6)cc5)cc34)cc2Cl)c1 [Compound 20k, N-(3-Chloro-4-((3-methoxybenzyl)oxy)phenyl)-6-(4-(morpholinosulfonyl)phenyl)quinazolin-4-amine Hydrochloride] | 5% | > 15 µM | EC50 ([1]; concentration giving 50% inhibition of growth of T brucei brucei Lister 427 cells, listed as NEU-567, Hydrochloride, read-out: Tbb EC50): 1.4 µM |

| Compound | EC50 (P. falciparum D6; Plasmodium falciparum) | EC50 (L. major promastigote; Leishmania major) | EC50 (P. falciparum W2; [2]) | EC50 (P. falciparum C235; [3]) | EC50 (L. major amastigote; Leishmania major) | EC50 [1, 4] | inhibition at 10 µM (T. cruzi) | IC50 (HepG2 cells; [5]) | also measured |
| --- | --- | --- | --- | --- | --- | --- | --- | --- | --- |
| O=S(=O)(c1cccc(-c2ccc3ncnc(Nc4ccc(OCc5cccc(F)c5)c(Cl)c4)c3c2)c1)N1CCOCC1 [Compound 10k, N-(3-Chloro-4-((3-fluorobenzyl)oxy)phenyl)-6-(3-(morpholinosulfonyl)phenyl)quinazolin-4-amine] | 0.28 µM | > 15 µM | 0.4 µM | 0.29 µM | > 15 µM | – | – | – | EC50 (T. cruzi): 1.7 µM; EC50 [1, 9]: 0.33 µM; IC50 (HepG2 cells; [10]): > 15 µM; IC50 (HepG2 cells; [11]): > 20 µM |
| O=C(c1cccc(-c2ccc3ncnc(Nc4ccc(OCc5cccc(F)c5)c(Cl)c4)c3c2)c1)N1CCCCC1 [Compound 23k, (3-(4-((3-Chloro-4-((3-fluorobenzyl)oxy)phenyl)amino)-quinazolin-6-yl)phenyl)(piperidin-1-yl)methanone] | 0.52 µM | 3.5 µM | 0.96 µM | 0.57 µM | 3.5 µM | – | – | > 6 µM | EC50 (T. cruzi): > 50 µM; EC50 [1, 9]: 0.14 µM |
| O=S(=O)(c1cccc(-c2ccc3ncnc(Nc4ccc(OCc5cccc(F)c5)c(Cl)c4)c3c2)c1)N1CCCCC1 [Compound 10m, N-(3-Chloro-4-((3-fluorobenzyl)oxy)phenyl)-6-(3-(piperidin-1-ylsulfonyl)phenyl)quinazolin-4-amine] | 0.33 µM | > 15 µM | – | – | > 15 µM | – | – | – | EC50 (P. falciparum W2; [12]): 0.59 µM; EC50 (P. falciparum C235; Plasmodium falciparum): 0.35 µM; EC50 (T. cruzi): > 50 µM; EC50 [1, 9]: 0.46 µM; IC50 (HepG2 cells; [10]): > 15 µM; IC50 (HepG2 cells; [11]): > 20 µM |
| CN(C)S(=O)(=O)c1ccccc1-c1ccc2ncnc(Nc3ccc(OCc4cccc(F)c4)c(Cl)c3)c2c1 [Compound 10v, 2-(4-((3-Chloro-4-((3-fluorobenzyl)oxy)phenyl)amino)-quinazolin-6-yl)-N,N-dimethylbenzenesulfonamide] | 0.82 µM | 2.8 µM | 1.8 µM | – | > 15 µM | 1.04 µM | – | – | EC50 (P. falciparum C235; Plasmodium falciparum): 1.1 µM; EC50 (T. cruzi): 1.5 µM; EC50 ([1]; concentration giving 50% inhibition of growth of T brucei brucei Lister 427 cells, listed as NEU-619, read-out: Tbb EC50): 1 µM; IC50 (HepG2 cells; [10]): > 15 µM |
| O=S(=O)(c1ccc(-c2ccc3ncnc(Nc4ccc(OCc5cccc(F)c5)c(Cl)c4)c3c2)cc1)N1CCCCC1 [Compound 10l, N-(3-Chloro-4-((3-fluorobenzyl)oxy)phenyl)-6-(4-(piperidin-1-ylsulfonyl)phenyl)quinazolin-4-amine] | 0.18 µM | > 15 µM | – | – | > 15 µM | – | 1% | – | EC50 (P. falciparum W2; [12]): 0.33 µM; EC50 (P. falciparum C235; Plasmodium falciparum): 0.24 µM; EC50 [1, 9]: 0.32 µM; IC50 (HepG2 cells; [10]): > 15 µM; IC50 (HepG2 cells; [11]): > 20 µM |
